Assay results from patent publication US8377913B2, “Vitamin D receptor activators and methods of making” (AbbVie Inc., priority 2007, dated 2013).

How the values were obtained:
[1] = test system: Human promyelocytic leukemia (HL60) cells; assay: HL-60 Differentiation; format: cell-based; details: HL-60, 96 h, four days incubation, NBT, absorbance 570 nm
Experimental: Human promyelocytic leukemia (HL60) cells were obtained from the American Type Culture Collection (ATCC Cat. # CCL-240, Manassas, Va.). Cells were maintained in RPMI 1640 medium (commercially available from Invitrogen, Carlsbad, Calif.) containing 10% fetal bovine serum (commercially available from Invitrogen, Carlsbad, Calif.) at 37° C. with 5% CO2. Cells were passaged weekly and were not allowed to become >90% confluent. For the assay, cells were plated at 5×10^5 cells per well in 200 uL media. Test compounds were diluted in media in concentrations between 10^−6-10^−10 M and then added to the appropriate wells. Cells were then incubated for four days at 37° C. in 5% CO2 atmosphere. After incubation, media was aspirated from each well and 75 uL of NBT solution (nitroblue tetrazolinium: 200 ng/mL PMA (phorbol 12-myrystate 13-acetate) and 2 mg/ml NBT (nitroblue tetrazolium) in distilled H2O) was added to each well followed by further incubation for 2 hours at 37° C. Following incubation, 150 uL lysis buffer (225 mL dimethylformamide, 67.5 g SDS). PMA stock solution (2 mg/ml in ethanol) was added to each well and the plate was allowed to sit at room temperature for 4 hours. HL-60 cell differentiation was assayed, Effect of each compound on cell growth was examined as a function of time; absorbance in each well was measured at 570 nm.

[2] = test system: Renin mRNA in As4.1 cells; assay: Renin mRNA in As4.1 cells transfected with pcDNA-hVDR (real-time RT-PCR); format: cell-based
Experimental: As4.1 cells (ATCC, Manassas, Va.) were cultured in Dulbecco's Modified Eagle Medium DMEM (commercially available from Invitrogen, Carlsbad, Calif.) with 10% fetal bovine serum at 37° C. in a humidified 5% CO2-95% air atmosphere. C3;ells were transfected with the pcDNA-hVDR plasmid (provided by Yan Chun Li, University of Chicago) by LIPOFECTAMINE™ 2000 (Invitrogen, Carlsbad, Calif.). siRNA was transfected with the pcDNA-hVDR plasmid by LIPOFECTAMINE™ 2000 according to the manufacturer's protocol. Twenty-four hours after transfection, cells were treated with test agents.
Real-time reverse transcription-PCR was performed with a MyiQ Real-time PCR Detection System (commercially available from BioRad, Hercules, Calif.). […] TaqMan™ probes that were 5′ labeled with the reporter 6-carboxyfluorescein (FAM) and 3′ labeled with the quencher tetramethylrhodamine (TAMRA) were used and the primer and probe sets were obtained from Applied Biosystems (Foster City, Calif.). Temperature conditions consisted of a step of 5 minutes at 95° C., followed by 45 cycles of 60° C. for 1 minute and 95° C. for 15 seconds. Data was collected during each extension phase of the PCR reaction and analyzed with the accompanying software package (BioRad, Hercules, Calif.). Threshold cycles were determined for each gene.

[3] = test system: PAI-1 mRNA in human coronary artery smooth muscle cells (CASMC); assay: PAI-1 mRNA in CASMC; format: cell-based; details: Homo sapiens
Experimental: (§1) Primary culture of human coronary artery smooth muscle cells (CASMC) (commercially available from Cambrex, Walkersville, Md.) were grown in smooth muscle growth medium SmGM-2 (commercially available from Lonza Bioscience) containing 5.5 mM glucose, 5% FBS, 50 μg/ml gentamicin, 50 ng/ml amphotericin-B, 5 μg/ml insulin, 2 ng/ml human recombinant fibroblast growth factor (hFGF), and 0.5 ng/ml human recombinant epidermal growth factor (hEGF) at 37° C. in a humidified 5% CO2-95% air atmosphere. Cells were grown to >80% confluence and used within five passages.
(§2) Real-time reverse transcription-PCR was performed with a MyiQ Real-Time PCR Detection System (BioRad, Hercules, Calif.). Each sample has a final volume of 25 μl containing 100 ng of cDNA, […] each of the forward and reverse PCR primers and […] of the TaqMan™ probe for the gene of interest (Applied Biosystems, Foster City, Calif.). Temperature conditions consisted of a step of 5 minutes at 95° C., followed by 40 cycles of 60° C. for 1 minute and 95° C. for 15 seconds. Data was collected during each extension phase of the PCR reaction and analyzed with the software package (BioRad, Hercules, Calif.). Threshold cycles were determined for each gene. […]

[4] = test system: Thrombomodulin mRNA in human coronary artery smooth muscle cells (CASMC); assay: Thrombomodulin mRNA in CASMC; format: cell-based; details: for EC50: Homo sapiens
Experimental: as §1, §2

[5] = test system: Thrombospondin mRNA in human coronary artery smooth muscle cells (CASMC); assay: Thrombospondin mRNA in CASMC; format: cell-based; details: Homo sapiens
Experimental: as §1, §2

Male, C57BL6, mice = assay: Normal Mouse Calcemia Model; format: in vivo; details: s.c. once daily for 3 days, dose giving 1 mg/dL change in total Ca
Experimental: Male, C57BL6, mice were obtained from Jackson Laboratories. The mice were habituated for four days while maintained on a normal diet (D10001, Research Diets Inc.). Treatment was initiated with vehicle (20% ethanol/30% propylene glycol/50% water, 0.05 mL, s.c.) or test agent administered over a three log dose range. The animals were dosed once daily for 3 days. Twenty-four hours after the last dose, animals were anesthetized with ketamine/xylazine (100/18 mg/kg) and bled by cardiac puncture for measurement of PTH and other end points.
Measurement of PTH and minerals: Calcium (Ca), serum phosphorus (Pi), creatinine and BUN were measured from serum using an Abbott Aeroset® (Abbott Laboratories, Abbott Park, Ill.). Blood ionized calcium (iCa) was determined using the i-STAT® system (Abbott Laboratories, East Windsor, N.J.). Serum PTH was measured using a mouse parathyroid hormone (PTH) EIA kit obtained from ALPCO/Immutopics, Inc. (Windham, N.H.). Selected data is shown is Table 6. The graphs in FIG. 4 give an indication of dose response. Notable is that Example 1 produced an approximately 30% reduction in PTH over at least a three log dose range without a concomitant elevation of serum calcium of greater than 1 mg/dL.
Data analysis: Mean±standard error of the mean was calculated for each group. One way ANOVA followed by a Dunnett's test was used to assess differences between vehicle and drug-treated groups. *p<0.05=significance.

[6] = test system: VDR (VDRE-luciferase-reporter construct); assay: VDRE Reporter Gene Assay in HEK cells with stable expression of VDR; format: cell-based; details: Homo sapiens, HEK293, 24 hours
Experimental: Compound activity was also assessed by looking at a Vitamin D Response Element (VDRE) reporter gene assay, Human Embryonic Kidney cells (HEK cells) with a stable expression of VDR were cultured in 96-well plates at ˜4×10^5 cells/mL (100 μL/well) in DMEM medium containing 10% fetal calf serum. Cells were transfected with 0.2 μg per well of a VDRE-luciferase-reporter construct (from Y. Li, University of Chicago) and then treated with test agents at indicated concentrations for 24 hours. The luciferase activity was then measured following the manufacturer's instructions (Promega, Madison, Wis.).

[7] = biological target: T1, recombinant full-length human Vitamin D nuclear receptor (Homo sapiens, UniProt P11473); assay: biochemical
T1 sequence (P11473 1-427): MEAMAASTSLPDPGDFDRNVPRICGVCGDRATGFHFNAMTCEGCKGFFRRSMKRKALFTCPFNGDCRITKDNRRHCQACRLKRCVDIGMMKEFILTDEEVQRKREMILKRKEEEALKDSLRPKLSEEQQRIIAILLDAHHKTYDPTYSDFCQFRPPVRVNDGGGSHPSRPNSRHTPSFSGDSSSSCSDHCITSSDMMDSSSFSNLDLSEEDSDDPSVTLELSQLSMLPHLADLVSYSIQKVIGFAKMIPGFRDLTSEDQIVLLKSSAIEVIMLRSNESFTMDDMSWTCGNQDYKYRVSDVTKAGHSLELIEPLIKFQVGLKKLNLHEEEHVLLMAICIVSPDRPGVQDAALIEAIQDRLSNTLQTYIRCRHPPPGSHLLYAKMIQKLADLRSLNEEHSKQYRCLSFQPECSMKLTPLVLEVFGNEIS
Experimental: In vitro binding of selected compounds according to the invention to VDR was assessed using the following procedure. […] Each test compound was then serially diluted in binding buffer to concentrations appropriate for the assay, as one skilled in the art can determine.
Final assay volume was 100 uL. The filled plate was incubated overnight at 4° C. with gentle shaking. After 18 hours of incubation, 20 uL of wheat germ agglutinin-coated yttrium silicate scintillation proximity assay (SPA) beads (commercially available from Amersham Biosciences, Piscataway, N.J.; Part # RPNQ0270) resuspended in binding buffer was added to each well (200 ug/well) and the plate was incubated at room temperature for 2 hours with gentle shaking.

SMILES	EC50 [1]	IC50 [2]	IC50 [3]	EC50 [4]	IC50 [5]	EC50 [6]	Thrombomodulin mRNA in CASMC EC50 [4]	IC50 [7]	1 mg/dL Δ total Ca (Male, C57BL6, mice)
C=C1/C(=C\C=C2/CCC[C@]3(C)[C@@H]([C@H](C)CCCC(C)(C)O)CC[C@@H]23)C[C@@H](O)C[C@@H]1O [Calcitriol, 1,25-dihydroxyvitamin D3, reference compound]	7 nM	1.6 nM	0.8 nM	1.6 nM	19.1 nM	–	–	–	0.026 µg/kg
C=C1[C@H](O)CC(=C/C=C2\CCC[C@]3(C)[C@@H]([C@H](C)CO)CC[C@@H]23)C[C@H]1O [Example 2, (1R,3R,7E,17β)-17-[(1S)-2-hydroxy-1-methylethyl]-2-methylene-9,10-secoestra-5,7-diene-1,3-diol]	162 nM	0.7 nM	0.03 nM	–	3.7 nM	52.7 nM	inactive	890 nM	–

Now from value to compound, other results behind:

EC50 [1]	IC50 [2]	IC50 [3]	EC50 [4]	IC50 [5]	EC50 [6]	Thrombomodulin mRNA in CASMC EC50 [4]	IC50 [7]	SMILES	1 mg/dL Δ total Ca (Male, C57BL6, mice)
3.9 nM	0.4 nM	0.003 nM	39.9 nM	0.002 nM	0.9 nM	–	1330 nM	C=C1[C@H](O)CC(=C/C=C2\CCC[C@]3(C)[C@@H]([C@@H](C)COC(=O)C(C)(C)C)CC[C@@H]23)C[C@H]1O [Example 3, (2R)-2-[(1R,3R,7E,17β)-1,3-dihydroxy-2-methylene-9,10-secoestra-5,7-dien-17-yl]propyl pivalate]	–
0.7 nM	3.4 nM	0.02 nM	84.7 nM	0.001 nM	1.3 nM	–	62.4 nM	C=C1[C@H](O)CC(=C/C=C2\CCC[C@]3(C)[C@@H]([C@H](C)COC(=O)C(C)(C)CC)CC[C@@H]23)C[C@H]1O [Example 4, (2S)-2-[(1R,3R,7E,17β)-1,3-dihydroxy-2-methylene-9,10-secoestra-5,7-dien-17-yl]propyl 2,2-dimethylbutanoate]	–
–	2.4 nM	0.002 nM	5.6 nM	0.001 nM	0.3 nM	–	0.1 nM	C=C1[C@H](O)CC(=C/C=C2\CCC[C@]3(C)[C@@H]([C@H](C)COC(=O)NC(C)(C)C)CC[C@@H]23)C[C@H]1O [Example 5, (2S)-2-[(1R,3R,7E,17β)-1,3-dihydroxy-2-methylene-9,10-secoestra-5,7-dien-17-yl]propyl tert-butylcarbamate]	–
16 nM	0.8 nM	0.5 nM	1.5 nM	0.2 nM	5.9 nM	–	14.6 nM	C[C@H](/C=C/[C@H](C)C(C)(C)O)[C@H]1CC[C@H]2/C(=C/C=C3C[C@@H](O)C[C@H](O)C3)CCC[C@]12C [Paricalcitol, paricalcitol, reference compound]	0.286 µg/kg
